Tests used:
[1] = system: recombinant NL4-3 virus (Renilla luciferase) in MT-2 cells; assay: HIV cell culture assay (antiviral activity, luciferase readout); type: cell-based; details: Renilla, NL43
In short: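 MT-2 cells were infected with recombinant NL4-3 virus carrying Renilla luciferase in place of part of nef. Cells were cultured 4–5 days with serially diluted compound, and luciferase was measured with a live-cell substrate. EC50 was calculated from the median effect equation.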

[2] = Compound cytotoxicity, XTT-based colorimetric assay; type: cell-based; details: human; uninfected MT2 cells, day 4, XTT
In short: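 Run under the antiviral-assay protocol but without virus. Viability was read on day 4 and CC50 values were derived from the readout.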

Row | SMILES | EC50 [1] | CC50 at 4 days [2]
1 | Cn1nc(NS(C)(=O)=O)c2c(Cl)ccc(-n3c([C@H](Cc4cc(F)cc(F)c4)NC(=O)Cn4nc(C(F)F)c5c4C(F)(F)[C@@H]4C[C@H]54)nc4cc(-c5ncccc5S(C)(=O)=O)ccc4c3=O)c21 (atropisomer, axis not shown; (P)) [Example 8, N—((S)-1-((3P)-3-(4-chloro-1-methyl-3-(methylsulfonamido)-1H-indazol-7-yl)-7-(3-(methylsulfonyl)pyridin-2-yl)-4-oxo-3,4-dihydroquinazolin-2-yl)-2-(3,5-difluorophenyl)ethyl)-2-((3bS,4aR)-3-(difluoromethyl)-5,5-difluoro-3b,4,4a,5-tetrahydro-1H-cyclopropa[3,4]cyclopenta[1,2-c]pyrazol-1-yl)acetamide] | 0.078 nM | > 500 nM
2 | COc1cnc(C)nc1-c1ccc2c(=O)n(-c3ccc(Cl)c4c(NS(C)(=O)=O)nn(C)c34)c([C@H](Cc3cc(F)cc(F)c3)NC(=O)Cn3nc(C(F)F)c4c3C(F)(F)[C@@H]3C[C@H]43)nc2c1 (atropisomer, axis not shown; (P)) [Example 9, N—((S)-1-((3P)-3-(4-chloro-1-methyl-3-(methylsulfonamido)-1H-indazol-7-yl)-7-(5-methoxy-2-methylpyrimidin-4-yl)-4-oxo-3,4-dihydroquinazolin-2-yl)-2-(3,5-difluorophenyl)ethyl)-2-((3bS,4aR)-3-(difluoromethyl)-5,5-difluoro-3b,4,4a,5-tetrahydro-1H-cyclopropa[3,4]cyclopenta[1,2-c]pyrazol-1-yl)acetamide] | 0.058 nM | > 500 nM
3 | COc1cccnc1-c1ccc2c(=O)n(-c3ccc(Cl)c4c(NS(C)(=O)=O)nn(C)c34)c([C@H](Cc3cc(F)cc(F)c3)NC(=O)Cn3nc(C(F)F)c4c3C(F)(F)[C@@H]3C[C@H]43)nc2c1 (atropisomer, axis not shown; (P)) [Example 11, N—((S)-1-((3P)-3-(4-chloro-1-methyl-3-(methylsulfonamido)-1H-indazol-7-yl)-7-(3-methoxypyridin-2-yl)-4-oxo-3,4-dihydroquinazolin-2-yl)-2-(3,5-difluorophenyl)ethyl)-2-((3bS,4aR)-3-(difluoromethyl)-5,5-difluoro-3b,4,4a,5-tetrahydro-1H-cyclopropa[3,4]cyclopenta[1,2-c]pyrazol-1-yl)acetamide] | 0.12 nM | > 500 nM
4 | Cn1nc(NS(C)(=O)=O)c2c(Cl)ccc(-n3c([C@H](Cc4cc(F)cc(F)c4)NC(=O)Cn4nc(C(F)F)c5c4C(F)(F)[C@@H]4C[C@H]54)nc4cc(-c5ccccc5C(F)F)ccc4c3=O)c21 (atropisomer, axis not shown; (P)) [Example 12, N—((S)-1-((3P)-3-(4-chloro-1-methyl-3-(methylsulfonamido)-1H-indazol-7-yl)-7-(2-(difluoromethyl)phenyl)-4-oxo-3,4-dihydroquinazolin-2-yl)-2-(3,5-difluorophenyl)ethyl)-2-((3bS,4aR)-3-(difluoromethyl)-5,5-difluoro-3b,4,4a,5-tetrahydro-1H-cyclopropa[3,4]cyclopenta[1,2-c]pyrazol-1-yl)acetamide] | 0.37 nM | > 500 nM
5 | Cn1nc(NS(C)(=O)=O)c2c(Cl)ccc(-n3c([C@H](Cc4cc(F)cc(F)c4)NC(=O)Cn4nc(C(F)F)c5c4C(F)(F)[C@@H]4C[C@H]54)nc4cc(-c5ccccc5OC(F)(F)F)ccc4c3=O)c21 (atropisomer, axis not shown; (P)) [Example 14, N—((S)-1-((3P)-3-(4-chloro-1-methyl-3-(methylsulfonamido)-1H-indazol-7-yl)-4-oxo-7-(2-(trifluoromethoxy)phenyl)-3,4-dihydroquinazolin-2-yl)-2-(3,5-difluorophenyl)ethyl)-2-((3bS,4aR)-3-(difluoromethyl)-5,5-difluoro-3b,4,4a,5-tetrahydro-1H-cyclopropa[3,4]cyclopenta[1,2-c]pyrazol-1-yl)acetamide] | 2.1 nM | > 500 nM
6 | COc1nccnc1-c1ccc2c(=O)n(-c3ccc(Cl)c4c(NS(C)(=O)=O)nn(C)c34)c([C@H](Cc3cc(F)cc(F)c3)NC(=O)Cn3nc(C(F)F)c4c3C(F)(F)[C@@H]3C[C@H]43)nc2c1 (atropisomer, axis not shown; (P)) [Example 15, N—((S)-1-((3P)-3-(4-chloro-1-methyl-3-(methylsulfonamido)-1H-indazol-7-yl)-7-(3-methoxypyrazin-2-yl)-4-oxo-3,4-dihydroquinazolin-2-yl)-2-(3,5-difluorophenyl)ethyl)-2-((3bS,4aR)-3-(difluoromethyl)-5,5-difluoro-3b,4,4a,5-tetrahydro-1H-cyclopropa[3,4]cyclopenta[1,2-c]pyrazol-1-yl)acetamide] | 0.15 nM | > 500 nM
7 | CC(C)c1nccnc1-c1ccc2c(=O)n(-c3ccc(Cl)c4c(NS(C)(=O)=O)nn(C)c34)c([C@H](Cc3cc(F)cc(F)c3)NC(=O)Cn3nc(C(F)F)c4c3C(F)(F)[C@@H]3C[C@H]43)nc2c1 (atropisomer, axis not shown; (P)) [Example 16, N—((S)-1-((3P)-3-(4-chloro-1-methyl-3-(methylsulfonamido)-1H-indazol-7-yl)-7-(3-isopropylpyrazin-2-yl)-4-oxo-3,4-dihydroquinazolin-2-yl)-2-(3,5-difluorophenyl)ethyl)-2-((3bS,4aR)-3-(difluoromethyl)-5,5-difluoro-3b,4,4a,5-tetrahydro-1H-cyclopropa[3,4]cyclopenta[1,2-c]pyrazol-1-yl)acetamide] | 0.12 nM | > 500 nM
8 | CCc1nccnc1-c1ccc2c(=O)n(-c3ccc(Cl)c4c(NS(C)(=O)=O)nn(C)c34)c([C@H](Cc3cc(F)cc(F)c3)NC(=O)Cn3nc(C(F)F)c4c3C(F)(F)[C@@H]3C[C@H]43)nc2c1 (atropisomer, axis not shown; (P)) [Example 17, N—((S)-1-((3P)-3-(4-chloro-1-methyl-3-(methylsulfonamido)-1H-indazol-7-yl)-7-(3-ethylpyrazin-2-yl)-4-oxo-3,4-dihydroquinazolin-2-yl)-2-(3,5-difluorophenyl)ethyl)-2-((3bS,4aR)-3-(difluoromethyl)-5,5-difluoro-3b,4,4a,5-tetrahydro-1H-cyclopropa[3,4]cyclopenta[1,2-c]pyrazol-1-yl)acetamide] | 0.11 nM | > 500 nM
9 | Cn1nc(NS(C)(=O)=O)c2c(Cl)ccc(-n3c([C@H](Cc4cc(F)cc(F)c4)NC(=O)Cn4nc(C(F)F)c5c4C(F)(F)[C@@H]4C[C@H]54)nc4cc(-c5nccnc5CO)ccc4c3=O)c21 (atropisomer, axis not shown; (P)) [Example 18, N—((S)-1-((3P)-3-(4-chloro-1-methyl-3-(methylsulfonamido)-1H-indazol-7-yl)-7-(3-(hydroxymethyl)pyrazin-2-yl)-4-oxo-3,4-dihydroquinazolin-2-yl)-2-(3,5-difluorophenyl)ethyl)-2-((3bS,4aR)-3-(difluoromethyl)-5,5-difluoro-3b,4,4a,5-tetrahydro-1H-cyclopropa[3,4]cyclopenta[1,2-c]pyrazol-1-yl)acetamide] | 0.099 nM | > 500 nM
10 | COc1nc2ccccc2nc1-c1ccc2c(=O)n(-c3ccc(Cl)c4c(NS(C)(=O)=O)nn(C)c34)c([C@H](Cc3cc(F)cc(F)c3)NC(=O)Cn3nc(C(F)F)c4c3C(F)(F)[C@@H]3C[C@H]43)nc2c1 (atropisomer, axis not shown; (P)) [Example 19, N—((S)-1-((3P)-3-(4-chloro-1-methyl-3-(methylsulfonamido)-1H-indazol-7-yl)-7-(3-methoxyquinoxalin-2-yl)-4-oxo-3,4-dihydroquinazolin-2-yl)-2-(3,5-difluorophenyl)ethyl)-2-((3bS,4aR)-3-(difluoromethyl)-5,5-difluoro-3b,4,4a,5-tetrahydro-1H-cyclopropa[3,4]cyclopenta[1,2-c]pyrazol-1-yl)acetamide] | 5.5 nM | > 500 nM
11 | Cn1nc(NS(C)(=O)=O)c2c(Cl)ccc(-n3c([C@H](Cc4cc(F)cc(F)c4)NC(=O)Cn4nc(C(F)F)c5c4C(F)(F)[C@@H]4C[C@H]54)nc4cc(-c5ncccc5F)ccc4c3=O)c21 (atropisomer, axis not shown; (P)) [Example 21, N—((S)-1-((3P)-3-(4-chloro-1-methyl-3-(methylsulfonamido)-1H-indazol-7-yl)-7-(3-fluoropyridin-2-yl)-4-oxo-3,4-dihydroquinazolin-2-yl)-2-(3,5-difluorophenyl)ethyl)-2-((3bS,4aR)-3-(difluoromethyl)-5,5-difluoro-3b,4,4a,5-tetrahydro-1H-cyclopropa[3,4]cyclopenta[1,2-c]pyrazol-1-yl)acetamide] | 0.091 nM | > 500 nM
12 | Cc1ccc(F)c(-c2ccc3c(=O)n(-c4ccc(Cl)c5c(NS(C)(=O)=O)nn(C)c45)c([C@H](Cc4cc(F)cc(F)c4)NC(=O)Cn4nc(C(F)F)c5c4C(F)(F)[C@@H]4C[C@H]54)nc3c2)n1 (atropisomer, axis not shown; (P)) [Example 22, N—((S)-1-((3P)-3-(4-chloro-1-methyl-3-(methylsulfonamido)-1H-indazol-7-yl)-7-(3-fluoro-6-methylpyridin-2-yl)-4-oxo-3,4-dihydroquinazolin-2-yl)-2-(3,5-difluorophenyl)ethyl)-2-((3bS,4aR)-3-(difluoromethyl)-5,5-difluoro-3b,4,4a,5-tetrahydro-1H-cyclopropa[3,4]cyclopenta[1,2-c]pyrazol-1-yl)acetamide] | 0.11 nM | > 500 nM
